Assays:
[1] = system: rgRSV224 virus; assay: Antiviral activity: inhibition of rgRSV224 (GFP-expressing RSV) replication in HeLa cells, GFP expression read-out; assay type: cell-based, respiratory syncytial virus (RSV); settings: human respiratory syncytial virus, HeLa, read-out: RSV HELA pEC50, rgRSV224 virus (MOI=1) in HeLa cells, GFP read-out (converted)
Outline: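 HeLa cells (3,000/well) were infected with GFP-expressing rgRSV224 (MOI=1) in the presence of 9 serial 4-fold compound dilutions (0.05% DMSO) and incubated at 37° C, 5% CO2. After three days, GFP expression was measured by laser microscopy. EC50 is the concentration giving 50% inhibition of GFP expression.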

[2] = Cytotoxicity in HeLa cells, ATP content measured with the ATPlite kit; assay type: cell-based; settings: human, TOX HELA pCC50

| SMILES | EC50 [1] | melting point | CC50 at 3 days [2] |
| --- | --- | --- | --- |
| CCc1cc(C(=O)N2CC[C@@H]3CCCC[C@@H]3[C@H]2C)nc2cc(-c3ccc(/C=C/C(=O)O)cc3F)nn12 (racemic) [Compound M50] | 191 nM | 184.15 °C | 46800 nM |
| CCOC(=O)Nc1ccc(-c2cc3nc(C(=O)N4CCCCCC4C)cc(CC)n3n2)cc1 (stereo not drawn) [Compound C7] | 1380 nM | 195 to 200 °C | > 100000 nM |
| CCc1cc(C(=O)N2CCn3cccc3C2C)nc2cc(-c3ccc(C(N)=O)cc3F)nn12 (stereo not drawn) [Compound I35] | 43.7 nM | 242 °C | > 25100 nM |
| CCc1cc(C(=O)N2CCCCCCC2C)nc2cc(-c3ccc(NS(C)(=O)=O)cc3F)nn12 (stereo not drawn) [Compound D3] | 145 nM | 195 to 200 °C | > 25100 nM |
| CCc1cc(C(=O)N2CCCCCC2C)nc2cc(-c3ccc(NC(=O)CCOC)cc3F)nn12 (stereo not drawn) [Compound E7] | 117 nM | 175 to 180 °C | > 25100 nM |
| CCc1cc(C(=O)N2CCCCCCC2C)nc2cc(-c3ccccc3F)nn12 (stereo not drawn) [Compound A18] | 355 nM | 125 to 130 °C | > 100000 nM |
| CCc1cc(C(=O)N2CCCCCC2C)nc2cc(-c3ccc(NC(=O)c4nccn4C)cc3F)nn12 (stereo not drawn) [Compound E1] | 617 nM | 210 to 215 °C | > 25100 nM |
| CNc1cc(C(=O)N2CCCCC[C@H]2C)nc2cc(-c3ccc(/C=C/C(=O)O)cc3F)nn12 [Compound M3] | 251 nM | 198 to 200 °C | > 25100 nM |
| CC1c2ccsc2CCN1C(=O)c1cc(C2(C)CC2)n2nc(-c3ccc(-c4ccc(C(=O)O)cn4)cc3F)cc2n1 (racemic) [Compound F68] | 43.7 nM | 203.36 °C | 51300 nM |
| CC1CCCCCN1C(=O)c1cc(N(C)C)n2nc(-c3ccc(C(N)=O)cc3F)cc2n1 (stereo not drawn) [Compound I30] | 240 nM | 215 to 216 °C | > 25100 nM |
| CCc1cc(C(=O)N2CCCCCC2C)nc2cc(-c3ccc(NC(=O)NCC4CCCO4)cc3)nn12 (stereo not drawn) [Compound B5] | 166 nM | 205 °C | > 100000 nM |
| CCc1cc(C(=O)N2CCCCCC2C)nc2cc(-c3ccc(CCC(N)=O)cc3F)nn12 (stereo not drawn) [Compound R1] | 251 nM | 95 to 100 °C | > 25100 nM |
| CCc1cc(C(=O)N2CCCCCC2C)nc2cc(-c3ccc(C(=O)NNCC4CC4)cc3F)nn12 (stereo not drawn) [Compound L9] | 372 nM | 140 °C | > 25100 nM |
| CCc1cc(C(=O)N2CCC3=C(CCCC3)C2C)nc2cc(-c3cccc(/C=C/C(=O)O)c3F)nn12 (racemic) [Compound M51] | 162 nM | 227.14 °C | 66100 nM |
| CC1c2ccsc2CCN1C(=O)c1cc(C2CC2)n2nc(-c3cccc(/C=C/C(=O)O)c3F)cc2n1 (stereo not drawn) [Compound M46] | 5.01 nM | 265.43 °C | 67600 nM |
| CC1CCCCCN1C(=O)c1cc(N(C)C2CCCCC2)n2nc(-c3ccc(NC(=O)C4CC4)cc3)cc2n1 (stereo not drawn) [Compound E19] | 537 nM | 261 to 262 °C | > 100000 nM |
| CCc1cc(C(=O)N2CCCCCC2C)nc2cc(-c3ccc(NC(=O)CCC(=O)O)cc3F)nn12 (stereo not drawn) [Compound E24] | 282 nM | 225 to 230 °C | > 25100 nM |
| C[C@@H]1c2ccccc2CCN1C(=O)c1cc(C2CC2)n2nc(-c3ccc(C4C[C@H]4C(=O)O)cc3F)cc2n1 (single isomer, unassigned) [Compound O5] | 11 nM | 222.18 °C | 55000 nM |
| C[C@@H]1CCCCCN1C(=O)c1cc(C2(C)CC2)n2nc(-c3ccc(-c4ccc(C(=O)O)cn4)cc3F)cc2n1 [Compound F31] | 49 nM | 257.89 °C | 32400 nM |
| CCc1cc(C(=O)N2CCCCCC2C)nc2c(F)c(-c3ccc(C(N)=O)cc3F)nn12 (stereo not drawn) [Compound J1] | 148 nM | 173 °C | > 25100 nM |

| SMILES | EC50 [1] | melting point | CC50 at 3 days [2] |
| --- | --- | --- | --- |
| CCc1cc(C(=O)N2CCCCCC2C)nc2cc(-c3ccc(C(=O)NCc4cccs4)cc3F)nn12 (stereo not drawn) [Compound L8] | 324 nM | 156 °C | > 25100 nM |
| CCc1cc(C(=O)N2CCCCCC2C)nc2cc(-c3ccc4c(c3)CC(=O)N4C)nn12 (stereo not drawn) [Compound A9] | 537 nM | 225 to 230 °C | > 25100 nM |
| CCc1cc(C(=O)N2CCCCCCC2C)nc2cc(-c3ccc(C(N)=O)cc3)nn12 (stereo not drawn) [Compound A29] | 155 nM | 170 to 175 °C | > 25100 nM |
| CCc1cc(C(=O)N2CCCCCC2C)nc2cc(-c3ccc(NC(=O)NCC4CCCO4)cc3C)nn12 (stereo not drawn) [Compound B4] | 257 nM | 123 °C | 55000 nM |
| CCc1cc(C(=O)N2CCCCCC2C)nc2cc(-c3ccc(N(C)C)cc3F)nn12 (stereo not drawn) [Compound A6] | 724 nM | 84 °C | 57500 nM |
| CCc1cc(C(=O)N2CCCCCN2C)nc2cc(-c3ccc(-n4cc(C(=O)O)cn4)cc3F)nn12 [Compound W32] | 219 nM | 268.79 °C | > 100000 nM |
| CCc1cc(C(=O)N2CCCCCC2C)nc2cc(-c3ccc(NC(=O)c4nccn4C)cc3)nn12 (stereo not drawn) [Compound E22] | 1700 nM | 196 to 198 °C | 21900 nM |
| C=CCC(=O)Nc1ccc(-c2cc3nc(C(=O)N4CCCCCC4C)cc(CC)n3n2)cc1 (stereo not drawn) [Compound E21] | 603 nM | 243 to 244 °C | > 25100 nM |
| CCc1cc(C(=O)N2CCCCCC2C)nc2cc(-c3ccc4c(c3)ncn4C)nn12 (stereo not drawn) [Compound A14] | 398 nM | 115 °C | > 25100 nM |
| CCc1cc(C(=O)N2CCCCCC2C)nc2cc(-c3ccc(N/C(=N/C#N)NC4CC4)cc3F)nn12 (stereo not drawn) [Compound B17] | 407 nM | 225 to 230 °C | > 25100 nM |
| CNc1cc(C(=O)N2CCCCCC2C)nc2cc(-c3ccc(C#N)cc3F)nn12 (stereo not drawn) [Compound H1] | 562 nM | 219 to 220 °C | > 25100 nM |
| CCc1cc(C(=O)N2CCCCCC2C)nc2cc(-c3ccc(NC(=O)NCC4CCCO4)cc3F)nn12 (stereo not drawn) [Compound B1] | 129 nM | 140 °C | > 100000 nM |
| C[C@@H]1CCCCCN1C(=O)c1cc(C2CCC2)n2nc(-c3cccc(/C=C/C(=O)O)c3F)cc2n1 [Compound M23] | 44.7 nM | 231.54 °C | > 100000 nM |
| CCCNC(=O)c1ccc(-c2cc3nc(C(=O)N4CCCCCC4C)cc(CC)n3n2)c(F)c1 (stereo not drawn) [Compound L3] | 240 nM | 188 °C | > 25100 nM |
| CCc1cc(C(=O)N2CCCCCC2C)nc2cc(-c3ccc4[nH]ccc4c3)nn12 (stereo not drawn) [Compound A7] | 589 nM | 195 to 197 °C | > 25100 nM |
| CCc1cc(C(=O)N2CCCCCN2C)nc2cc(-c3ccc(C4C[C@H]4C(=O)O)cc3F)nn12 (mixture of isomers) [Compound O12] | 174 nM | 204.71 °C | > 100000 nM |
| CCc1cc(C(=O)N2CCCCC[C@H]2C)nc2cc(-c3ccc4ccc(C(=O)O)cc4c3F)nn12 [Compound F36] | 46.8 nM | 274.48 °C | > 100000 nM |
| CCc1cc(C(=O)N2CCc3sccc3C2C)nc2cc(-c3ccc(C4C[C@H]4C(=O)O)cc3F)nn12 (single isomer, unassigned) [Compound O22] | 6.92 nM | 228.98 °C | 47900 nM |
| C[C@@H]1c2ccccc2CCN1C(=O)c1cc(C2(C)CC2)n2nc(-c3ccc(N4CC[C@H](C(=O)O)C4)cc3F)cc2n1 [Compound W34] | 11.2 nM | 162.08 °C | 43700 nM |
| CCc1cc(C(=O)N2CCCc3ccccc3C2C)nc2cc(-c3ccc(C(=O)O)cc3F)nn12 (stereo not drawn) [Compound K8] | 437 nM | 105 to 110 °C | > 25100 nM |

— patent US11084826B2, “RSV antiviral pyrazolo- and triazolo-pyrimidine compounds” (Janssen Sciences Ireland Unlimited Company, priority 2015, dated 2021)
